Results on 22 molecules are retold here after patent US10577378B2, “EIF4A-inhibiting compounds and methods related thereto” (eFFECTOR Therapeutics, Inc., priority 2015, dated 2020).

Each structure is given as a SMILES string.

This assay concerns MDA-MB-231 human breast cancer cells. The assay can be described thus: Cell proliferation assay (CellTiter-Glo, 72 hours treatment). In kind it is cell-based. The note with it: Homo sapiens; MDA-MB-231 cells, 72 hours at 37° C., CellTiter-Glo; read-out: MDA-MB-231 cell proliferation assay (IC50). The procedure: Human tumor cell lines were cultured in the appropriate media (DMEM and RPMI) supplemented with penicillin G (100 U/ml), streptomycin (100 μg/ml), 10% FBS in a humidified atmosphere of 5% CO2 maintained at 37° C. Exponentially growing cells were seeded at 2,500 cells/well in 96 well plates prior to drug treatment. The following day, cells were treated with either DMSO (vehicle control) or eIF4A inhibitors at the appropriate dose for 72 hours at 37° C. Following compound treatment, cell proliferation was assessed by CellTiter-Glo assay (Promega, Madison Wis.) according to the manufacturer's protocol. Dose-response curves were fitted by non-linear regression (sigmoidal dose response model) using KaleidaGraph (Synergy Software, Reading Pa.) and IC50 values were calculated.
To this end, IC50 values of less than 100 nM are labelled as “+++”, from 100 nM to 1000 nM are labelled as “++”, and greater than 1000 nM are labelled as “+” (NA means “not available”).
Turning to `COc1ccc([C@@]23Oc4cc(OC)cnc4[C@]2(O)[C@H](O)[C@H](C(=O)N(C)C)[C@H]3c2ccccc2)cc1` (racemic) [1F, Rac-(5aR,6S,7R,8R,8aS)-8,8a-dihydroxy-3-methoxy-5a-(4-methoxyphenyl)-N,N-dimethyl-6-phenyl-5a,7,8,8a-tetrahydro-6H-cyclopenta[4,5]furo[3,2-b]pyridine-7-carboxamide], the IC50 was 100 to 1000 nM.

Consider `CN(C)C(=O)[C@H]1[C@@H](O)[C@@]2(O)c3ccc(C#N)cc3S[C@@]2(c2ccc(C#N)cc2)[C@@H]1c1ccccc1` (racemic) [13F, Rac-(1R,2R,3S,3aR,8bS)-6-cyano-3a-(4-cyanophenyl)-1,8b-dihydroxy-N,N-dimethyl-3-phenyl-2,3,3a,8b-tetrahydro-1H-benzo[b]cyclopenta[d]thiophene-2-carboxamide], for which the IC50 was greater than 1000 nM. The value for `CN(C)C(=O)[C@H]1[C@@H](O)[C@@]2(O)c3cnc(C#N)cc3O[C@@]2(c2ccc(C#N)cc2)[C@@H]1c1ccccc1` (racemic) [14F, rac-(5aR,6S,7R,8R,8aS)-3-cyano-5a-(4-cyanophenyl)-8,8a-dihydroxy-N,N-dimethyl-6-phenyl-5a,7,8,8a-tetrahydro-6H-cyclopenta[4,5]furo[3,2-c]pyridine-7-carboxamide] was 100 to 1000 nM; that for `COc1ccc2c(n1)O[C@@]1(c3ccc(C#N)cc3)[C@H](c3ccccc3)[C@@H](C(=O)N(C)C)[C@@H](O)[C@@]21O` (racemic) [15F, Rac-(4bS,5R,6R,7S,7aR)-7a-(4-cyanophenyl)-4b,5-dihydroxy-2-methoxy-N,N-dimethyl-7-phenyl-4b,6,7,7a-tetrahydro-5H-cyclopenta[4,5]furo[2,3-b]pyridine-6-carboxamide] was greater than 1000 nM; that for `COc1nccc2c1[C@]1(O)[C@H](O)[C@H](C(=O)N(C)C)[C@@H](c3ccccc3)[C@]1(c1ccc(C#N)cc1)O2` (racemic) [19F, rac-(5aR,6S,7R,8R,8aS)-5a-(4-cyanophenyl)-8,8a-dihydroxy-1-methoxy-N,N-dimethyl-6-phenyl-5a,7,8,8a-tetrahydro-6H-cyclopenta[4,5]furo[3,2-c]pyridine-7-carboxamide] was 100 to 1000 nM. As for `COC(=O)[C@H]1[C@@H](O)[C@@]2(O)c3nn(C)cc3O[C@@]2(c2ccc(C#N)cc2)[C@@H]1c1ccccc1` (racemic) [21F, Rac-methyl (4aR,5S,6R,7R,7aS)-4a-(4-cyanophenyl)-7,7a-dihydroxy-2-methyl-5-phenyl-2,4a,5,6,7,7a-hexahydrocyclopenta[4,5]furo[3,2-c]pyrazole-6-carboxylate], the IC50 is greater than 1000 nM. Turning to `CN(C)S(=O)(=O)[C@H]1[C@@H](O)[C@@]2(O)c3ncc(Cl)cc3O[C@@]2(c2ccc(C#N)cc2)[C@@H]1c1ccccc1` (racemic) [22F, Rac-(5aR,6S,7R,8S,8aS)-3-chloro-5a-(4-cyanophenyl)-8,8a-dihydroxy-N,N-dimethyl-6-phenyl-5a,7,8,8a-tetrahydro-6H-cyclopenta[4,5]furo[3,2-b]pyridine-7-sulfonamide], the IC50 lay in the range of 100 to 1000 nM. `COC(=O)[C@@]12C[C@@H]1[C@@]1(O)c3ncc(Cl)cc3O[C@@]1(c1ccc(Br)cc1)[C@@H]2c1ccccc1` (racemic) [24F, rac-methyl (5aR,6R,6aS,7aS,7bR)-5a-(4-bromophenyl)-3-chloro-7b-hydroxy-6-phenyl-5a,7,7a,7b-tetrahydrocyclopropa[4′,5′]cyclopenta[1′,2′:4,5]furo[3,2-b]pyridine-6a(6H)-carboxylate]: the IC50 was greater than 1000 nM. Take `COC(=O)[C@@]12C[C@@H]1[C@@]1(O)c3ncc(Cl)cc3O[C@@]1(c1ccc(C#N)cc1)[C@@H]2c1ccccc1` (racemic) [25F, Rac-methyl (5aR,6R,6aS,7aS,7bR)-3-chloro-5a-(4-cyanophenyl)-7b-hydroxy-6-phenyl-5a,7,7a,7b-tetrahydrocyclopropa[4′,5′]cyclopenta[1′,2′:4,5]furo[3,2-b]pyridine-6a(6H)-carboxylate]: the IC50 is greater than 1000 nM. The value for `N#Cc1ccc([C@@]23Oc4cc(Cl)cnc4[C@]2(O)[C@H](O)[C@H](c2ncco2)[C@H]3c2ccccc2)cc1` (racemic) [26F, Rac-4-((5aR,6S,7R,8R,8aS)-3-chloro-8,8a-dihydroxy-7-(oxazol-2-yl)-6-phenyl-6,7,8,8a-tetrahydro-5aH-cyclopenta[4,5]furo[3,2-b]pyridin-5a-yl)benzonitrile] was 100 to 1000 nM; that for `N#C[C@H]1[C@@H](O)[C@@]2(O)c3ncc(Cl)cc3O[C@@]2(c2ccc(Br)cc2)[C@@H]1c1ccccc1` (racemic) [27F, rac-(5aR,6S,7S,8R,8aS)-5a-(4-bromophenyl)-3-chloro-8,8a-dihydroxy-6-phenyl-5a,7,8,8a-tetrahydro-6H-cyclopenta[4,5]furo[3,2-b]pyridine-7-carbonitrile] was 100 to 1000 nM; that for `NC(=S)[C@H]1[C@@H](O)[C@@]2(O)c3ncc(Cl)cc3O[C@@]2(c2ccc(Br)cc2)[C@@H]1c1ccccc1` (racemic) [28F, Rac-(5aR,6S,7R,8R,8aS)-5a-(4-bromophenyl)-3-chloro-8,8a-dihydroxy-6-phenyl-5a,7,8,8a-tetrahydro-6H-cyclopenta[4,5]furo[3,2-b]pyridine-7-carbothioamide] was 100 to 1000 nM.

With `CN(C)C(=O)[C@H]1[C@@H](O)[C@@]2(O)c3nc(C(F)(F)F)c(O)cc3O[C@@]2(c2ccc(C#N)cc2)[C@@H]1c1ccccc1` (racemic) [29F, Rac-(5aR,6S,7R,8R,8aS)-5a-(4-cyanophenyl)-3,8,8a-trihydroxy-N,N-dimethyl-6-phenyl-2-(trifluoromethyl)-5a,7,8,8a-tetrahydro-6H-cyclopenta[4,5]furo[3,2-b]pyridine-7-carboxamide], the IC50 was greater than 1000 nM. Consider `N#Cc1ccc([C@@]23Oc4cc(Cl)cnc4[C@]2(O)[C@H](O)[C@H](CN)[C@H]3c2ccccc2)cc1` (racemic) [30F, rac-4-((5aR,6S,7S,8R,8aS)-7-(aminomethyl)-3-chloro-8,8a-dihydroxy-6-phenyl-6,7,8,8a-tetrahydro-5aH-cyclopenta[4,5]furo[3,2-b]pyridin-5a-yl)benzonitrile], for which the IC50 fell in the range of 100 to 1000 nM. Under `CN(C)C(=O)[C@@]12C[C@@H]1[C@@]1(O)c3ncc(Cl)cc3O[C@@]1(c1ccc(C#N)cc1)[C@@H]2c1ccccc1` (racemic) [31F, Rac-(5aR,6R,6aS,7aS,7bR)-3-chloro-5a-(4-cyanophenyl)-7b-hydroxy-N,N-dimethyl-6-phenyl-5a,7,7a,7b-tetrahydrocyclopropa[4′,5′]cyclopenta[1′,2′:4,5]furo[3,2-b]pyridine-6a(6H)-carboxamide] stands greater than 1000 nM; under `CN(C)C(=O)[C@H]1C(=O)[C@@]2(O)c3ncc(Cl)cc3O[C@@]2(c2ccc(C#N)cc2)[C@@H]1c1ccccc1` (racemic) [32F, Rac-(5aR,6S,7R,8aR)-3-chloro-5a-(4-cyanophenyl)-8a-hydroxy-N,N-dimethyl-8-oxo-6-phenyl-5a,7,8,8a-tetrahydro-6H-cyclopenta[4,5]furo[3,2-b]pyridine-7-carboxamide], greater than 1000 nM; under `CN(C)C(=O)[C@@H]1[C@@H](c2ccccc2)[C@]2(c3ccc(C#N)cc3)Oc3cc(Cl)cnc3[C@]2(O)[C@]1(C)O` (racemic) [33Fa, Rac-(5aR,6S,7R,8R,8aS)-3-chloro-5a-(4-cyanophenyl)-8,8a-dihydroxy-N,N,8-trimethyl-6-phenyl-5a,7,8,8a-tetrahydro-6H-cyclopenta[4,5]furo[3,2-b]pyridine-7-carboxamide], 100 to 1000 nM. Take `CN(C)C(=O)[C@@H]1[C@@H](c2ccccc2)[C@]2(c3ccc(C#N)cc3)Oc3cc(Cl)cnc3[C@]2(O)[C@@]1(C)O` (racemic) [33Fb, Rac-(5aR,6S,7R,8S,8aS)-3-chloro-5a-(4-cyanophenyl)-8,8a-dihydroxy-N,N,8-trimethyl-6-phenyl-5a,7,8,8a-tetrahydro-6H-cyclopenta[4,5]furo[3,2-b]pyridine-7-carboxamide]: the IC50 is greater than 1000 nM. The value for `C=C1C[C@@H](c2ccccc2)[C@]2(c3ccc(Br)cc3)Oc3cc(Cl)cnc3[C@]12O` (racemic) [34F, Rac-(5aR,6S,8aR)-5a-(4-bromophenyl)-3-chloro-8-methylene-6-phenyl-5a,6,7,8-tetrahydro-8aH-cyclopenta[4,5]furo[3,2-b]pyridin-8a-ol] was greater than 1000 nM; that for `COC1=C(C(=O)N(C)C)[C@@H](c2ccccc2)[C@]2(c3ccc(Br)cc3)Oc3cc(Cl)cnc3[C@]12O` (racemic) [35F, rac-(5aR,6R,8aS)-5a-(4-bromophenyl)-3-chloro-8a-hydroxy-8-methoxy-N,N-dimethyl-6-phenyl-5a,8a-dihydro-6H-cyclopenta[4,5]furo[3,2-b]pyridine-7-carboxamide] was greater than 1000 nM.

As to `CN(C)C(=O)[C@H]1[C@@H](O)[C@@]2(O)c3nn(C)c(Cl)c3O[C@@]2(c2ccc(C#N)cc2)[C@@H]1c1ccccc1` (racemic) [36F, Rac-(4aR,5S,6R,7R,7aS)-3-chloro-4a-(4-cyanophenyl)-7,7a-dihydroxy-N,N,2-trimethyl-5-phenyl-2,4a,5,6,7,7a-hexahydrocyclopenta[4,5]furo[3,2-c]pyrazole-6-carboxamide], the IC50 is greater than 1000 nM.

For the molecule `CN(C)C(=O)[C@H]1[C@@H](O)[C@@]2(O)c3nn(C)c(Cl)c3O[C@@]2(c2ccc(Br)cc2)[C@@H]1c1ccccc1` (racemic) [37F, Rac-(4aR,5S,6R,7R,7aS)-4a-(4-bromophenyl)-3-chloro-7,7a-dihydroxy-N,N,2-trimethyl-5-phenyl-2,4a,5,6,7,7a-hexahydrocyclopenta[4,5]furo[3,2-c]pyrazole-6-carboxamide], the IC50 is greater than 1000 nM.
